In the supplement of paper PMC8149375:

Columns and labels:
Conditions in all cases: treatment: drug + dasatinib (fixed dose, not stated); 5 days
TK-10 [1] = assay: minimum viability across doses, drug + dasatinib, relative to DMSO (fraction); higher = less growth inhibition
Method: (§1)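 Primary HTS combination arm: 8 RCC cell lines treated with 8 doses (up to 10 uM) of each library drug plus a fixed dose of dasatinib (dose not stated) for 5 days; viability read by CellTiter-Glo and normalised to DMSO. GI50 was fitted with XLfit, AUC is the area under the dose-response curve, and minimum viability is the lowest fraction of DMSO viability across doses.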

ACHN [2] = assay: as above
Method: as §1

UO-31 [3] = assay: as above
Method: as §1

786-O [4] = assay: as above
Method: as §1

CAKI-1 [5] = assay: as above
Method: as §1

A498 [6] = assay: as above
Method: as §1

SN12C [7] = assay: as above
Method: as §1

769-P [8] = assay: as above
Method: as §1

TK-10 [9] = assay: AUC of dose-response viability curve, drug + dasatinib, normalised to DMSO (arbitrary (AUC of normalised viability)); higher = less growth inhibition
Method: as §1

ACHN [10] = assay: as above
Method: as §1

UO-31 [11] = assay: as above
Method: as §1

786-O [12] = assay: as above
Method: as §1

CAKI-1 [13] = assay: as above
Method: as §1

A498 [14] = assay: as above
Method: as §1

SN12C [15] = assay: as above
Method: as §1

769-P [16] = assay: as above
Method: as §1

TK-10 [17] = assay: GI50 of drug in presence of dasatinib; higher = less potent
Method: as §1

ACHN [18] = assay: as above
Method: as §1

UO-31 [19] = assay: as above
Method: as §1

786-O [20] = assay: as above
Method: as §1

CAKI-1 [21] = assay: as above
Method: as §1

A498 [22] = assay: as above
Method: as §1

SN12C [23] = assay: as above
Method: as §1

769-P [24] = assay: as above
Method: as §1

| GI50 of drug (ACHN [18]) [nM] | GI50 of drug (786-O [20]) [nM] | SMILES | minimum viability across doses (TK-10 [1]) | minimum viability across doses (ACHN [2]) | minimum viability across doses (UO-31 [3]) | minimum viability across doses (786-O [4]) | minimum viability across doses (CAKI-1 [5]) | minimum viability across doses (A498 [6]) | minimum viability across doses (SN12C [7]) | minimum viability across doses (769-P [8]) | AUC of dose-response viability curve (TK-10 [9]) | AUC of dose-response viability curve (ACHN [10]) | AUC of dose-response viability curve (UO-31 [11]) | AUC of dose-response viability curve (786-O [12]) | AUC of dose-response viability curve (CAKI-1 [13]) | AUC of dose-response viability curve (A498 [14]) | AUC of dose-response viability curve (SN12C [15]) | AUC of dose-response viability curve (769-P [16]) | GI50 of drug (TK-10 [17]) [nM] | GI50 of drug (UO-31 [19]) [nM] | GI50 of drug (CAKI-1 [21]) [nM] | GI50 of drug (A498 [22]) [nM] | GI50 of drug (SN12C [23]) [nM] | GI50 of drug (769-P [24]) [nM] |
| --- | --- | --- | --- | --- | --- | --- | --- | --- | --- | --- | --- | --- | --- | --- | --- | --- | --- | --- | --- | --- | --- | --- | --- | --- |
| > 10000 | > 10000 | CC1(C)CCC(CN2CCN(c3ccc(C(=O)NS(=O)(=O)c4ccc(NCC5CCOCC5)c([N+](=O)[O-])c4)c(Oc4cnc5[nH]ccc5c4)c3)CC2)=C(c2ccc(Cl)cc2)C1 [ABT-199 (GDC-0199 )] + Cc1nc(Nc2ncc(C(=O)Nc3c(C)cccc3Cl)s2)cc(N2CCN(CCO)CC2)n1 [dasatinib] | 0.61 | 0.542 | 1 | 0.586 | 0.592 | 0.899 | 0.68 | 0.692 | 2.39 | 2.01 | 3.9 | 2.43 | 2.29 | 3.56 | 2.51 | 2.58 | > 10000 | > 10000 | > 10000 | > 10000 | > 10000 | > 10000 |
| 1060 | 136 | CC1(C)CCC(c2ccc(Cl)cc2)=C(CN2CCN(c3ccc(C(=O)NS(=O)(=O)c4ccc(N[C@H](CCN5CCOCC5)CSc5ccccc5)c(S(=O)(=O)C(F)(F)F)c4)cc3)CC2)C1 [ABT-263 (Navitoclax)] + Cc1nc(Nc2ncc(C(=O)Nc3c(C)cccc3Cl)s2)cc(N2CCN(CCO)CC2)n1 [dasatinib] | 0.0882 | 0.0781 | 0.00471 | 0.00344 | 0.555 | 0.608 | 0.502 | 0.024 | 2.03 | 1.9 | 2 | 1.46 | 2.36 | 3.01 | 2.48 | 1.92 | 1080 | 400 | > 10000 | > 10000 | > 10000 | 768 |
| 2560 | 469 | CN(C)CC[C@H](CSc1ccccc1)Nc1ccc(S(=O)(=O)NC(=O)c2ccc(N3CCN(Cc4ccccc4-c4ccc(Cl)cc4)CC3)cc2)cc1[N+](=O)[O-] [ABT-737] + Cc1nc(Nc2ncc(C(=O)Nc3c(C)cccc3Cl)s2)cc(N2CCN(CCO)CC2)n1 [dasatinib] | 0.144 | 0.23 | 0.00776 | 0.00111 | 0.65 | 0.171 | 0.515 | 0.0505 | 2.24 | 1.9 | 3.71 | 1.74 | 2.41 | 3.1 | 2.58 | 2.31 | 3300 | 3310 | > 10000 | 5920 | > 10000 | 2140 |
| 13.7 | 4450 | CCN1CCN(Cc2ccc(-c3cc4c(N[C@H](C)c5ccccc5)ncnc4[nH]3)cc2)CC1 [AEE788 (NVP-AEE788)] + Cc1nc(Nc2ncc(C(=O)Nc3c(C)cccc3Cl)s2)cc(N2CCN(CCO)CC2)n1 [dasatinib] | 0.0139 | 0.0466 | 0.00751 | 0.0446 | 0.0223 | 0.258 | 0.218 | 0.0653 | 1.92 | 1.19 | 2.92 | 2.38 | 2 | 2.9 | 2.16 | 1.81 | 305 | 1790 | 1770 | 5830 | 2100 | 298 |
| 2330 | 2470 | N#C/C(=C\c1ccc(O)c(O)c1)C(=O)NCc1ccccc1 [AG-490] + Cc1nc(Nc2ncc(C(=O)Nc3c(C)cccc3Cl)s2)cc(N2CCN(CCO)CC2)n1 [dasatinib] | 0.544 | 0.179 | 0.8 | 0.355 | 0.667 | 0.887 | 0.681 | 0.488 | 2.62 | 1.98 | 3.44 | 2.36 | 2.43 | 3.3 | 2.49 | 2.42 | > 10000 | > 10000 | > 10000 | > 10000 | > 10000 | 8560 |
| 20.9 | 37 | COc1cc2ncnc(Nc3cccc(Cl)c3)c2cc1OC [AG-1478 (Tyrphostin AG-1478)] + Cc1nc(Nc2ncc(C(=O)Nc3c(C)cccc3Cl)s2)cc(N2CCN(CCO)CC2)n1 [dasatinib] | 0.363 | 0.236 | 0.586 | 0.284 | 0.451 | 0.961 | 0.646 | 0.3 | 1.93 | 1.39 | 3.65 | 1.84 | 2.2 | 3.95 | 2.37 | 1.67 | 726 | > 10000 | 7730 | > 10000 | > 10000 | 107 |
| 1000 | 4000 | COc1ccc2c(Oc3ccc(NC(=O)c4c(C)n(CC(C)(C)O)n(-c5ccccc5)c4=O)nc3)ccnc2c1 [AMG458] + Cc1nc(Nc2ncc(C(=O)Nc3c(C)cccc3Cl)s2)cc(N2CCN(CCO)CC2)n1 [dasatinib] | 0.392 | 0.152 | 0.0124 | 0.195 | 0.085 | 0.771 | 0.396 | 0.421 | 2.39 | 1.89 | 3.35 | 2.08 | 1.92 | 3.38 | 2.06 | 2.27 | 5300 | 4300 | 893 | > 10000 | 1730 | 3380 |
| 8.54 | 7.2 | Cc1csc(-c2nnc(Nc3ccc(Oc4ncccc4-c4ccnc(N)n4)cc3)c3ccccc23)c1 [AMG 900] + Cc1nc(Nc2ncc(C(=O)Nc3c(C)cccc3Cl)s2)cc(N2CCN(CCO)CC2)n1 [dasatinib] | 0.459 | 0.186 | 0.604 | 0.117 | 0.286 | 0.562 | 0.319 | 0.211 | 2.2 | 1.25 | 4.1 | 0.863 | 1.32 | 3.08 | 1.93 | 1.44 | 6460 | > 10000 | 15.4 | > 10000 | 383 | 36.1 |
| > 10000 | > 10000 | COc1ccc2c(OCc3nnc4ccc(-c5ccccc5)nn34)ccnc2c1 [AMG-208] + Cc1nc(Nc2ncc(C(=O)Nc3c(C)cccc3Cl)s2)cc(N2CCN(CCO)CC2)n1 [dasatinib] | 0.642 | 0.544 | 0.987 | 0.68 | 0.613 | 0.805 | 0.688 | 0.634 | 2.54 | 2.07 | 3.91 | 2.6 | 2.24 | 3.32 | 2.52 | 2.4 | > 10000 | > 10000 | > 10000 | > 10000 | > 10000 | > 10000 |
| 367 | 191 | O=C1NC(=O)[C@@H](c2cn3c4c(cccc24)CCC3)[C@@H]1c1c[nH]c2ccccc12 [ARQ 197 (Tivantinib)] + Cc1nc(Nc2ncc(C(=O)Nc3c(C)cccc3Cl)s2)cc(N2CCN(CCO)CC2)n1 [dasatinib] | 0.298 | 0.147 | 0.03 | 0.00404 | 0.0929 | 0.133 | 0.181 | 0.0843 | 2.11 | 1.73 | 2.97 | 1.42 | 1.56 | 2.42 | 2.01 | 1.87 | 1460 | 1980 | 178 | 974 | 1870 | 509 |
| 84.7 | 1110 | C=CC(=O)Nc1ccc2ncnc(Nc3ccc(OCc4cccc(F)c4)c(Cl)c3)c2c1.Cc1ccc(S(=O)(=O)O)cc1 [AST-1306] + Cc1nc(Nc2ncc(C(=O)Nc3c(C)cccc3Cl)s2)cc(N2CCN(CCO)CC2)n1 [dasatinib] | 0.0976 | 0.138 | 0.06 | 0.0714 | 0.00665 | 0.495 | 0.0534 | 0.0288 | 2.01 | 1.62 | 3.51 | 1.99 | 2.04 | 3.44 | 2.22 | 1.82 | 406 | 3170 | 1680 | 9990 | 5350 | 321 |

| SMILES | GI50 of drug (ACHN [18]) [nM] | GI50 of drug (786-O [20]) [nM] | minimum viability across doses (TK-10 [1]) | minimum viability across doses (ACHN [2]) | minimum viability across doses (UO-31 [3]) | minimum viability across doses (786-O [4]) | minimum viability across doses (CAKI-1 [5]) | minimum viability across doses (A498 [6]) | minimum viability across doses (SN12C [7]) | minimum viability across doses (769-P [8]) | AUC of dose-response viability curve (TK-10 [9]) | AUC of dose-response viability curve (ACHN [10]) | AUC of dose-response viability curve (UO-31 [11]) | AUC of dose-response viability curve (786-O [12]) | AUC of dose-response viability curve (CAKI-1 [13]) | AUC of dose-response viability curve (A498 [14]) | AUC of dose-response viability curve (SN12C [15]) | AUC of dose-response viability curve (769-P [16]) | GI50 of drug (TK-10 [17]) [nM] | GI50 of drug (UO-31 [19]) [nM] | GI50 of drug (CAKI-1 [21]) [nM] | GI50 of drug (A498 [22]) [nM] | GI50 of drug (SN12C [23]) [nM] | GI50 of drug (769-P [24]) [nM] |
| --- | --- | --- | --- | --- | --- | --- | --- | --- | --- | --- | --- | --- | --- | --- | --- | --- | --- | --- | --- | --- | --- | --- | --- | --- |
| CC(C)(C)c1cc(C=C(C#N)C#N)cc(Br)c1O [AG-1024] + Cc1nc(Nc2ncc(C(=O)Nc3c(C)cccc3Cl)s2)cc(N2CCN(CCO)CC2)n1 [dasatinib] | > 10000 | > 10000 | 0.698 | 0.515 | 1.06 | 0.601 | 0.57 | 0.971 | 0.687 | 0.586 | 2.59 | 2.02 | 4.02 | 2.42 | 2.24 | 3.66 | 2.55 | 2.38 | > 10000 | > 10000 | > 10000 | > 10000 | > 10000 | > 10000 |
| Cc1cc2c(C(C)C)c(O)c(O)c(C=O)c2c(O)c1-c1c(C)cc2c(C(C)C)c(O)c(O)c(C=O)c2c1O [AT101] + Cc1nc(Nc2ncc(C(=O)Nc3c(C)cccc3Cl)s2)cc(N2CCN(CCO)CC2)n1 [dasatinib] | 1850 | > 10000 | 0.517 | 0.133 | 0.947 | 0.265 | 0.106 | 0.835 | 0.667 | 0.636 | 2.33 | 1.84 | 3.9 | 2.18 | 2.15 | 3.27 | 2.62 | 2.6 | > 10000 | > 10000 | 3350 | > 10000 | > 10000 | > 10000 |
